Our source for the EC50 and solubility values is US20240199623A1 (ILDONG PHARMACEUTICAL CO., LTD., priority 2020, published 2024).

Converted amounts (≈) assume the structure as drawn.

One data set concerns the target human wild type-CFTR (Homo sapiens, UniProt P13569). Kind of data set: Cell-based YFP assay. Set-up: expressed in transfected cells; host or cells: CHO-K1 (Chinese hamster ovary). As to conditions: CHO-K1 cells expressing human wild type-CFTR and YFP-H148Q/I152L; forskolin 20 μM = 100% activity; read-out: Cell-based YFP Assay (EC50) Concentration Range. Summed up:
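I⁻-driven YFP fluorescence quenching at 37 °C: 2 s baseline, addition of 140 mM iodide solution, then 14 s of readings at 0.4 s intervals. Cells were CHO-K1 expressing human wild-type CFTR plus YFP-H148Q/I152L. EC50 derived from averaged triplicates.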

Data set [1] can be described thus: Phosphate-buffered saline (PBS) solubility of compounds. Format: physicochemical. The settings on record: aqueous buffer, thermodynamic from solid, PBS pH 7.5, 0.5 mg/mL, vortexed 90 min, filtered, LC-MS/MS, read-out: Solubility Range. The protocol:
PBS solutions (pH 7.5) were prepared according to the following compositions and stored at 4° C. Test compounds were dissolved in PBS (pH 7.5) at 0.5 mg/mL and vortexed for 90 min. The PBS solution was sequentially filtered through a 0.45, 1.2, […] syringe filter. Concentration of test compounds were determined using LC-MS/MS with appropriate dilution of the samples.

As usually defined, the solubility is the concentration that dissolves in the medium under given conditions.

human wild type-CFTR, sequence (P13569 whole entry): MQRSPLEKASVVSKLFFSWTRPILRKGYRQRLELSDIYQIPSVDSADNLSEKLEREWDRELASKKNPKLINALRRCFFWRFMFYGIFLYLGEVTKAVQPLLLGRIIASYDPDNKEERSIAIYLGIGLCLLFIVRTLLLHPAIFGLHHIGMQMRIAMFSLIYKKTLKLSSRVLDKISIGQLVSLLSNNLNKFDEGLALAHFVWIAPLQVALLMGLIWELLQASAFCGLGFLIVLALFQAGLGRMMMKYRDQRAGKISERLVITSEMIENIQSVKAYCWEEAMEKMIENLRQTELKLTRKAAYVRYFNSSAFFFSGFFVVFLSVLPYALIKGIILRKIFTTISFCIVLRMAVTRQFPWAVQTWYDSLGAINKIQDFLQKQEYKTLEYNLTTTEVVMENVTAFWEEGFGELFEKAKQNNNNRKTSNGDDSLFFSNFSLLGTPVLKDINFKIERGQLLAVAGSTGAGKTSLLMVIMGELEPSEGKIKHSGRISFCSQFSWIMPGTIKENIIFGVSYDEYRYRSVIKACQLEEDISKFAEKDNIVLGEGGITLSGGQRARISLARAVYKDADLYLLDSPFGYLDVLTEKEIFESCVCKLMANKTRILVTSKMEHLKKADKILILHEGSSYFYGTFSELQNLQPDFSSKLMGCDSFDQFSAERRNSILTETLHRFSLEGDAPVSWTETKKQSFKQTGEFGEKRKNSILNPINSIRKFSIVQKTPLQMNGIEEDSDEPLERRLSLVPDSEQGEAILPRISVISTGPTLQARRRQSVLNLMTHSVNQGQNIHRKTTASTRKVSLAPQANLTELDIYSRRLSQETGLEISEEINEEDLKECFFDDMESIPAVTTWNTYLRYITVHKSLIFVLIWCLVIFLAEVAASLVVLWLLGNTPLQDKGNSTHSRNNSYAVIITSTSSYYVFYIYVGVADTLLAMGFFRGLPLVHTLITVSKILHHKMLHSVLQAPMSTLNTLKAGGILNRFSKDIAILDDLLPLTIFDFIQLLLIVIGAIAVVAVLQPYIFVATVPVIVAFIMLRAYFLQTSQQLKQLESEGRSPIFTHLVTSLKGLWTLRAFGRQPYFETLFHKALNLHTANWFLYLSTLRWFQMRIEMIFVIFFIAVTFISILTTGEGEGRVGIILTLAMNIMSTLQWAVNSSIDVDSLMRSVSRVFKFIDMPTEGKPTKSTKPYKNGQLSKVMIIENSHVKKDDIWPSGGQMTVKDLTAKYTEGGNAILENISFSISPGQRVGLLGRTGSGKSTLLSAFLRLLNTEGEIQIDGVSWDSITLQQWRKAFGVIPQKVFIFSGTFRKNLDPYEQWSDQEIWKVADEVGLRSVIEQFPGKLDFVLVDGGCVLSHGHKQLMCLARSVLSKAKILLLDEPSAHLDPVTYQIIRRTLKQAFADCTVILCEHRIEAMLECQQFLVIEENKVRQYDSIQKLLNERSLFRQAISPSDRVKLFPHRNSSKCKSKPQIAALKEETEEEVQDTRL

Consider `COc1ccc(-c2ccnc3cc(C(=O)Nc4ccc(C(=O)O)c(O)c4)nn23)cc1OC` [Compound 168, 4-(7-(3,4-dimethoxyphenyl)pyrazolo[1,5-a]pyrimidine-2-carboxamido)-2-hydroxybenzoic acid], for which the EC50 at human wild type-CFTR lay in the range of 200 to 2000 nM. Besides, the solubility at 90 min in data set [1] was under 0.1 µg/mL.
For the compound `COc1ccc(-c2ccnc3cc(C(=O)N4CC[C@H](NC(=O)OC(C)(C)C)C4)nn23)cc1OC` [Compound 145, tert-butyl (S)-(1-(7-(3,4-dimethoxyphenyl)pyrazolo [1,5-a]pyrimidine-2-carbonyl)pyrrolidine-3-yl)carbamate], the EC50 on human wild type-CFTR lay within 200 to 2000 nM. Also, the solubility at 90 min in data set [1] lay in the range of 0.1 to 10 µg/mL (≈ 0.214 to 21.4 µM).
In the case of `COc1ccc(-c2ccnc3cc(C(=O)Nc4ccccc4)nn23)cc1OC` [Compound 1, 7-(3,4-dimethoxyphenyl)-N-phenylpyrazolo[1,5-a] pyrimidine-2-carboxamide], at human wild type-CFTR, the EC50 was under 200 nM. Further, in data set [1], the solubility at 90 min was under 0.1 µg/mL.
The like results for `COc1ccc(-c2ccnc3cc(C(=O)Nc4cccc(C(=O)N5CCN(C(=O)OC(C)(C)C)CC5)c4)nn23)cc1OC` [Compound 56, tert-butyl 4-(3-(7-(3,4-dimethoxyphenyl)pyrazolo [1,5-a]pyrimidine-2-carboxamido)benzoyl) piperazine-1-carboxylate] were, in that order, under 200 nM and under 0.1 µg/mL.
Regarding `COc1ccc(-c2ccnc3cc(C(=O)NC4CCN(C(=O)OC(C)(C)C)CC4)nn23)cc1OC` [Compound 63, tert-butyl 4-(7-(3,4-dimethoxyphenyl)pyrazolo[1,5-a]pyrimidine-2-carboxamido)piperidine-1-carboxylate], the EC50 at human wild type-CFTR lay within 200 to 2000 nM. In data set [1], the solubility at 90 min was in the range of 0.1 to 10 µg/mL (≈ 0.208 to 20.8 µM).
With `COc1ccc(-c2ccnc3cc(C(=O)Nc4ccc(C(=O)N5CCN(C)CC5)c(Cl)c4)nn23)cc1OC` [Compound 161, N-(3-chloro-4-(4-methylpiperazine-1-carbonyl)phenyl)-7-(3,4-dimethoxyphenyl)pyrazolo [1,5-a]pyrimidine-2-carboxamide], the EC50 at human wild type-CFTR was 200 to 2000 nM. Further, the solubility at 90 min in data set [1] is 0.1 to 10 µg/mL (≈ 0.187 to 18.7 µM).
The like results for `COc1ccc(-c2ccnc3cc(C(=O)Nc4ccc(C(=O)N5CCN(C(=O)OC(C)(C)C)CC5)cc4)nn23)cc1OC` [Compound 51, tert-butyl 4-(4-(7-(3,4-dimethoxyphenyl)pyrazolo [1,5-a]pyrimidine-2-carboxamido)benzoyl) piperazine-1-carboxylate] were, in that order, under 200 nM and under 0.1 µg/mL.
Take `COc1ccc(-c2ccnc3cc(C(=O)Nc4ccc(C(=O)OCCCN5CCN(C)CC5)cc4)nn23)cc1OC` [Compound 165, 3-(4-methylpiperazin-1-yl)propyl 4-(7-(3,4-dimethoxyphenyl)pyrazolo[1,5-a]pyrimidine-2-carboxamido)benzoate]: the EC50 on human wild type-CFTR was in the range of 200 to 2000 nM. For the same compound, in data set [1], the solubility at 90 min was under 0.1 µg/mL.
As for `COC(=O)[C@@H](NC(=O)c1ccc(NC(=O)c2cc3nccc(-c4ccc(OC)c(OC)c4)n3n2)cc1)C(C)C` [Compound 58, methyl (4-(7-(3,4-dimethoxyphenyl)pyrazolo [1,5-a]pyrimidine-2-carboxamido)benzoyl)-L-valinate], the EC50 on human wild type-CFTR is under 200 nM. Moreover, the solubility at 90 min in data set [1] is under 0.1 µg/mL.
The like results for `COc1ccc(-c2ccnc3cc(C(=O)Nc4cccc(C(=O)N5CCOCC5)c4)nn23)cc1OC` [Compound 55, 7-(3,4-dimethoxyphenyl)-N-(3-(morpholine-4-carbonyl)phenyl)pyrazolo [1,5-a]pyrimidine-2-carboxamide] were, in that order, under 200 nM and under 0.1 µg/mL.
The matching figures for `COc1ccc(-c2ccnc3cc(C(=O)Nc4ccc(N5CCN(C)CC5)cn4)nn23)cc1OC` [Compound 204, 7-(3,4-dimethoxyphenyl)-N-(5-(4-methylpiperazin-1-yl)pyridin-2-yl)pyrazolo[1,5-a]pyrimidine-2-carboxamide]: under 200 nM and under 0.1 µg/mL.
The matching figures for `COc1ccc(-c2ccnc3cc(C(=O)Nc4cccc(C(=O)O)c4)nn23)cc1OC` [Compound 16, 3-(7-(3,4-dimethoxyphenyl)pyrazolo[1,5-a]pyrimidine-2-carboxamido)benzoic acid]: at least 2000 nM and over 10 µg/mL.
Consider `COc1ccc(-c2ccnc3cc(C(=O)Nc4ccc(C(=O)OCCCN5CCOCC5)cc4)nn23)cc1OC` [Compound 121, 3-morpholinopropyl 4-(7-(3,4-dimethoxyphenyl)pyrazolo [1,5-a]pyrimidine-2-carboxamido)benzoate], for which the EC50 on human wild type-CFTR is under 200 nM. Also, the solubility at 90 min in data set [1] is under 0.1 µg/mL.
With `COc1ccc(-c2ccnc3cc(C(=O)Nc4cccnc4)nn23)cc1OC` [Compound 18, 7-(3,4-dimethoxyphenyl)-N-(pyridin-3-yl) pyrazolo[1,5-a]pyrimidine-2-carboxamide], the EC50 on human wild type-CFTR lay within 200 to 2000 nM. In addition, in data set [1], the solubility at 90 min is under 0.1 µg/mL.
As to `COC(=O)[C@H](Cc1ccccc1)NC(=O)c1ccc(NC(=O)c2cc3nccc(-c4ccc(OC)c(OC)c4)n3n2)cc1` [Compound 46, methyl (4-(7-(3,4-dimethoxyphenyl)pyrazolo [1,5-a]pyrimidine-2-carboxamido)benzoyl)-L-phenylalaninate], the EC50 at human wild type-CFTR is under 200 nM. Moreover, the solubility at 90 min in data set [1] was under 0.1 µg/mL.
For the compound `COc1ccc(-c2ccnc3cc(C(=O)NC45CC(C(=O)N6CCN(C(=O)OC(C)(C)C)CC6)(C4)C5)nn23)cc1OC` [Compound 92, tert-butyl 4-(3-(7-(3,4-dimethoxyphenyl)pyrazolo [1,5-a]pyrimidine-2-carboxamido)bicyclo [1.1.1]pentane-1-carbonyl)piperazine-1-carboxylate], the EC50 on human wild type-CFTR was under 200 nM. Besides, the solubility at 90 min in data set [1] was under 0.1 µg/mL.
Take `COC(=O)c1ccc(NC(=O)c2cc3nccc(-c4ccc(OC)c(Cl)c4)n3n2)cc1` [Compound 39, methyl 4-(7-(3-chloro-4-methoxyphenyl)pyrazolo [1,5-a]pyrimidine-2-carboxamido)benzoate]: the EC50 at human wild type-CFTR was in the range of 200 to 2000 nM. Also, the solubility at 90 min in data set [1] is under 0.1 µg/mL.
The matching figures for `COc1ccc(-c2ccnc3cc(C(=O)Nc4ccc(C(=O)N5CCOCC5)c(O)c4)nn23)cc1OC` [Compound 169, 7-(3,4-dimethoxyphenyl)-N-(3-hydroxy-4-(morpholine-4-carbonyl)phenyl)pyrazolo[1,5-a]pyrimidine-2-carboxamide]: under 200 nM and under 0.1 µg/mL.
`COc1ccc(-c2ccnc3cc(C(=O)N[C@H]4CC[C@@H](C(=O)N5CCN(C(=O)OC(C)(C)C)CC5)CC4)nn23)cc1OC` [Compound 73, tert-butyl 4-((1S,4S)-4-(7-(3,4-dimethoxyphenyl)pyrazolo [1,5-a]pyrimidine-2-carboxamido)cyclohexane-1-carbonyl)piperazine-1-carboxylate]: at human wild type-CFTR, the EC50 fell in the range of 200 to 2000 nM. For the same compound, in data set [1], the solubility at 90 min is 0.1 to 10 µg/mL (≈ 0.169 to 16.9 µM).
Take `COc1ccc(-c2ccnc3cc(C(=O)Nc4ccc(NC(=O)CN)cc4)nn23)cc1OC` [Compound 283, N-(4-(2-aminoacetamido)phenyl)-7-(3,4-dimethoxyphenyl)pyrazolo [1,5-a]pyrimidine-2-carboxamide]: at human wild type-CFTR, the EC50 was in the range of 200 to 2000 nM. The solubility at 90 min in data set [1] is under 0.1 µg/mL.
The matching figures for `COC(=O)c1ccc(NC(=O)c2cc3nccc(-c4ccc(OC)c(OC)c4)n3n2)cc1O` [Compound 167, methyl 4-(7-(3,4-dimethoxyphenyl)pyrazolo [1,5-a]pyrimidine-2-carboxamido)-2-hydroxybenzoate]: under 200 nM and under 0.1 µg/mL.
For `COc1ccc(-c2ccnc3cc(C(=O)Nc4ccc(C(N)=O)cc4)nn23)cc1OC` [Compound 48, N-(4-carbamoylphenyl)-7-(3,4-dimethoxyphenyl)pyrazolo [1,5-a]pyrimidine-2-carboxamide], the EC50 at human wild type-CFTR is under 200 nM. The solubility at 90 min in data set [1] was under 0.1 µg/mL.
As for `COC(=O)[C@H](C)NC(=O)c1ccc(NC(=O)c2cc3nccc(-c4ccc(OC)c(OC)c4)n3n2)cc1` [Compound 42, methyl (4-(7-(3,4-dimethoxyphenyl)pyrazolo [1,5-a]pyrimidine-2-carboxamido)benzoyl)-L-alaninate], on human wild type-CFTR, the EC50 was under 200 nM. Also, the solubility at 90 min in data set [1] is under 0.1 µg/mL.
The like results for `COC(=O)[C@H](CC(C)C)NC(=O)c1ccc(NC(=O)c2cc3nccc(-c4ccc(OC)c(OC)c4)n3n2)cc1` [Compound 57, methyl (4-(7-(3,4-dimethoxyphenyl)pyrazolo [1,5-a]pyrimidine-2-carboxamido)benzoyl)-L-leucinate] were, in that order, under 200 nM and under 0.1 µg/mL.
The matching figures for `COc1ccc(-c2ccnc3cc(C(=O)Nc4ccc(C(=O)N5CCN(C)CC5)c(O)c4)nn23)cc1OC` [Compound 170, 7-(3,4-dimethoxyphenyl)-N-(3-hydroxy-4-(4-methylpiperazine-1-carbonyl)phenyl)pyrazolo [1,5-a]pyrimidine-2-carboxamide]: under 200 nM and 0.1 to 10 µg/mL (≈ 0.194 to 19.4 µM).
The like results for `COc1ccc(-c2ccnc3cc(C(=O)Nc4ccc(C(=O)OCCCN5CCOCC5)c(F)c4)nn23)cc1OC` [Compound 163, 3-morpholinopropyl 4-(7-(3,4-dimethoxyphenyl)pyrazolo [1,5-a]pyrimidine-2-carboxamido)-2-fluorobenzoate] were, in that order, 200 to 2000 nM and under 0.1 µg/mL.
